PMC9837764 (Nature Communications, 2023)
Values joined by “and” are separate entries in the source; they are usually repeats but may differ in a detail not shown here. Identical values can stand only once. Like-named read-outs stand apart in the source and are kept apart here.

Key:
[1] = MB-905 and metabolites in mouse lungs after single oral treatment; format: in vivo, mice; settings: individual animals
Protocol: Fig. 5 Pharmacokinetic and pharmacodynamics in mice. […] Lung metabolites were detected consistently in terms of peak area and duration (c). Transgenic mice expressing the hACE2 receptor to SARS-CoV-2 entry at the age of 10–12 weeks were infected with 10^5 PFU intranasally and treated orally beginning 12–18 h after infection with 140 mg/kg/day. […] (e) are presented.
(§1) Pharmacokinetics in rodent plasma was performed in CD1 mice (Mus musculus, 20–30 g) and Sprague‒Dawley rats (Rattus norvegicus, 250–300 g) of both sexes. […] After oral or intravenous administration, blood samples were collected at times of 0.25, 0.5, 1, 2, 4, 8, and 24 and 0.083, 0.25, 0.5, 1, 2, and 4 h. Parameters such as area under the curve (AUC), time taken to reach the maximum concentration (Tmax), time taken for Cmax to drop in half (T 1/2), volume of distribution, clearance, elimination constant and bioavailability (F) were evaluated. Bioavailability was calculated using the following equation: F (%) = [(intravenous dose x oral AUC)/(oral dose × intravenous AUC)] × 100. […] Animals were treated orally with MB-905 as previously described. Animals were sacrificed at different time points after treatments, and lungs were immediately removed, placed in liquid nitrogen at −80 °C and processed for further analysis. For the analysis of plasma and lung supernatant, UPLC–MS/MS equipment was used.

[2] = Pharmacokinetics and metabolites in rat plasma; format: in vivo, Sprague-Dawley rats (Rattus norvegicus); set-up: MB-905 in rat plasma (Fig4B source data, per animal) / MB-905 in rat plasma (Fig4A source data, per animal): unit not given here; settings: for MB-905 in rat plasma (Fig4A source data, per animal): 1 mg/kg i.v.; for MB-905 in rat plasma (Fig4B source data, per animal): 30 mg/kg oral; for k el: read-out: Ke (converted)
SARS-CoV-2 Gamma VoC [3] = settings: hamster, in vivo, 140 mg/kg
SARS-CoV-2 Gamma VoC [4] = system: SARS-CoV-2 Gamma VoC; set-up: species or system Syrian hamsters (Mesocricetus auratus); settings: hamster, in vivo
SARS-CoV-2 RNA = test: RNA immunoprecipitation with anti-kinetin antibody, infected Calu-3 cells; format: cell-based
SARS-CoV-2 = test: Yield-reduction assay, SARS-CoV-2 in Calu-3 cells (titers as PFU/mL in Vero cells); settings: for Inhibition of SARS-CoV-2 infectious titers (Fig1B source data, replicates): additional treatment at 24 h; for Inhibition of SARS-CoV-2 infectious titers (Fig1A source data, replicates): one treatment
SARS-CoV-2 gamma VoC [5] = system: SARS-CoV-2 gamma VoC; set-up: species or system K18-hACE2 mice (Mus musculus); settings: mouse, in vivo
SARS-CoV-2 gamma VoC [6] = system: SARS-CoV-2 gamma VoC; set-up: species or system K18-hACE2 mice (Mus musculus); settings: mouse, in vivo; remark: listed apart in the source
SARS-CoV-2 gamma VoC [7] = system: SARS-CoV-2 gamma VoC; set-up: species or system K18-hACE2 mice (Mus musculus); settings: mouse, in vivo; remark: listed apart in the source
[8] = MB-905 and metabolites in rat lung; format: in vivo, Sprague-Dawley rats (Rattus norvegicus); settings: 30 mg/kg oral
Protocol: Noncompartmental data analysis was performed using Phoenix WinNonlin®.
as §1
Supplementary Fig. 6. Pharmacokinetic and putative metabolites of MB-905 in rats. a, […]
plasma (n = 6); b, Single oral dose (30 mg/kg bodyweight) pharmacokinetics properties of MB- […]
mg/kg, p.o.) (n=5) d, Single oral dose (30 mg/kg bodyweight) pharmacokinetics properties of […]
(30 mg/kg, p.o.) (n=3) f, Single oral dose (30 mg/kg bodyweight) pharmacokinetics properties of […]

in vivo = settings: both sexes, mouse, mice
Protocol: For the MTD assay (OECD 425), mice (3 animals of each sex/group) were divided into five experimental groups, and the up and down procedure was applied to which 175 mg/kg was used as the first dose. […] Mortality, morbidity, body weight, food consumption, and general and detailed clinical signs of toxicity were evaluated. At necropsy, vital (brain, heart, liver, spleen, kidneys and adrenal glands) and reproductive organs (ovaries, testicles, and epididymis) were carefully removed, weighed and stored for further analysis (if necessary).

[9] = both sexes, Sprague-Dawley, rat, plasma, iv, rats, 1 mg/kg (i.v.)
[10] = both sexes, Sprague-Dawley, rat, plasma, po, rats, 30 mg/kg (p.o.)
[11] = MB-905-treated infected Calu-3 cells

c1coc(CNc2ncnc3[nH]cnc23)c1 [MB-905, N6-furfurylaminopurine]
MB-905 level (Fig5B) ([1]; 140 mg/kg, 0.25 h): 1864 and 2462 and 2409 | MB-905 level (Fig5B) ([1]; 140 mg/kg, 1 h): 2448 and 1951 | MB-905 level (Fig5B) ([1]; 140 mg/kg, 3 h): 1209 and 771 and 2655 | MB-905 level (Fig5B) ([1]; 140 mg/kg, 8 h): 1105 and 110 and 400 | MB-905 level (Fig5B) ([1]; 140 mg/kg, 12 h): 0 | MB-905 level (Fig5B) ([1]; 500 mg/kg, 0.25 h): 5246 and 5640 and 6065 | MB-905 level (Fig5B) ([1]; 500 mg/kg, 1 h): 4146 and 4252 and 4427 | MB-905 level (Fig5B) ([1]; 500 mg/kg, 3 h): 3576 and 2579 and 2846 | MB-905 level (Fig5B) ([1]; 500 mg/kg, 8 h): 3077 and 895 and 2729 | MB-905 level (Fig5B) ([1]; 500 mg/kg, 12 h): 575 and 53 and 0 | MB-905 in rat plasma (Fig4A source data, per animal) ([2]; 0.083 h): 122.29 and 142.1 and 107.27 and 127.39 and 93.94 | MB-905 in rat plasma (Fig4A source data, per animal) ([2]; 0.25 h): 82.46 and 129.29 and 128.28 and 120.23 and 112.61 | MB-905 in rat plasma (Fig4A source data, per animal) ([2]; 0.5 h): 65.31 and 60.03 and 69.73 and 52.81 and 69.66 | MB-905 in rat plasma (Fig4A source data, per animal) ([2]; 1 h): 28.25 and 16.64 and 9.33 and 14.09 and 7.19 and 13.17 | MB-905 in rat plasma (Fig4A source data, per animal) ([2]; 2 h): 1.74 and 1.82 and 1.9 and 1.56 and 1.91 | MB-905 in rat plasma (Fig4A source data, per animal) ([2]; 3 h): 0.61 and 1.31 and 1.15 (3×) and 1.21 | MB-905 in rat plasma (Fig4B source data, per animal) ([2]; 0.25 h): 397.32 and 362.53 and 415.61 and 353.44 | MB-905 in rat plasma (Fig4B source data, per animal) ([2]; 1 h): 263.22 and 231.26 and 292.83 and 229.84 | MB-905 in rat plasma (Fig4B source data, per animal) ([2]; 2 h): 88.19 and 121.59 and 183.67 and 211.01 and 229.72 | MB-905 in rat plasma (Fig4B source data, per animal) ([2]; 3 h): 243.45 and 113.36 and 86.5 and 220.24 and 141.51 | MB-905 in rat plasma (Fig4B source data, per animal) ([2]; 5 h): 154.28 and 65.58 and 86.37 and 126.88 and 27.06 | MB-905 in rat plasma (Fig4B source data, per animal) ([2]; 8 h): 116.98 and 84.1 and 84.26 and 4.12 and 35.08 | MB-905 in rat plasma (Fig4B source data, per animal) ([2]; 12 h): 1.46 and 1.1 and 5.1 and 3.6 and 2.01 | bioavailability ([2]; both sexes, Sprague-Dawley, rat, plasma, iv, 1 mg/kg, rats, 1 mg/kg (i.v.), read-out: F): 100% | AUC [2, 9]: 77.1 ng·h/mL | AUC(0-t) [2, 9]: 77.1 ng·h/mL | Cmax [2, 9]: 124 ng/mL | Tmax [2, 9]: 4.98 min | clearance [2, 9]: 214 mL/min/kg | half-life [2, 9]: 33.6 min | k el [2, 9]: 0.000342 s⁻¹ | Vd ([2]; both sexes, Sprague-Dawley, rat, plasma, iv, rats, 1 mg/kg (i.v.), read-out: Vz): 10.4 L/kg | bioavailability ([2]; both sexes, Sprague-Dawley, rat, plasma, po, 30 mg/kg, rats, 30 mg/kg (p.o.), read-out: F): 64.7% | bioavailability ([2]; both sexes, Sprague-Dawley, rat, plasma, po, 30 mg/kg, rats, read-out: Oral bioavailability): > 50% | AUC [2, 10]: 1500 ng·h/mL | AUC(0-t) [2, 10]: 1500 ng·h/mL | Cmax [2, 10]: 370 ng/mL | Tmax [2, 10]: 15 min | half-life [2, 10]: 229 min | k el [2, 10]: 5e-05 s⁻¹ | CL ([2]; rats, 30 mg/kg (p.o.)): 330.53 mL/min/kg | Vz ([2]; rats, 30 mg/kg (p.o.)): 109.18 L/kg | Tolerability (body weight) (SARS-CoV-2 Gamma VoC [3]): tolerated | Viral RNA levels (SARS-CoV-2 Gamma VoC [4]): did not affect viral RNA levels | Infectious virus titers in the lungs (SARS-CoV-2 Gamma VoC [4]; 140 mg/kg): reduced infectious virus titers in the lungs | Viral RNA immunoprecipitated with anti-kinetin antibody (Ab) (Fig2C source data) (SARS-CoV-2 RNA; [11]): 149.09 and 145.01 and 123.64 and 134.36 | Viral RNA immunoprecipitated with isotype control (Iso) (Fig2C source data) (SARS-CoV-2 RNA; [11]): 2.52 and 2.29 and 2.30 and 2.50 | Enrichment of viral RNA in anti-N6-furfuryladenine IP compared to isotype control and nil-treated cells (SARS-CoV-2 RNA; infected Calu-3 cells): more than 10 fold | EC50 (SARS-CoV-2; Severe acute respiratory syndrome coronavirus 2, Calu-3): 310 ± 50 nM | EC50 (SARS-CoV-2; Severe acute respiratory syndrome coronavirus 2, Calu-3, 24 h): 30 ± 4 nM | EC90 (SARS-CoV-2; Severe acute respiratory syndrome coronavirus 2, read-out: In vitro EC90 values, range): 2.1 to 6.3 µM | Inhibition of SARS-CoV-2 infectious titers (Fig1B source data, replicates) (SARS-CoV-2; Drug 0.001, Calu-3, 48 h): 16 and 20 and 22 | Inhibition of SARS-CoV-2 infectious titers (Fig1B source data, replicates) (SARS-CoV-2; Drug 0.01): 22 and 55 and 63 | Inhibition of SARS-CoV-2 infectious titers (Fig1B source data, replicates) (SARS-CoV-2; Drug 0.1): 66 and 47 and 65 | Inhibition of SARS-CoV-2 infectious titers (Fig1B source data, replicates) (SARS-CoV-2; Drug 1): 92 and 72 and 69 | Inhibition of SARS-CoV-2 infectious titers (Fig1B source data, replicates) (SARS-CoV-2; Drug 10): 98 and 97 and 96 | Antiviral activity, SARS-CoV-2 replication (SARS-CoV-2; huh-7 and calu-3 cells (Supplementary Fig. 2)): inhibited SARS-CoV-2 replication in a concentration-dependent manner | Inhibition of SARS-CoV-2 infectious titers (Fig1A source data, replicates) (SARS-CoV-2; Drug 0.001, Calu-3, MOI 0.1, 48 h): 5 and 4 and 2 | Inhibition of SARS-CoV-2 infectious titers (Fig1A source data, replicates) (SARS-CoV-2; Drug 0.01): 15 and 4 and 13 | Inhibition of SARS-CoV-2 infectious titers (Fig1A source data, replicates) (SARS-CoV-2; Drug 0.1): 22 and 39 and 30 | Inhibition of SARS-CoV-2 infectious titers (Fig1A source data, replicates) (SARS-CoV-2; Drug 1): 60 and 91 and 74 | Inhibition of SARS-CoV-2 infectious titers (Fig1A source data, replicates) (SARS-CoV-2; Drug 10): 66 and 96 and 88 | Fig6G lung histological score (SARS-CoV-2 gamma VoC [5]): 1 and 2 | LDH levels in bronchoalveolar lavage (BAL) (SARS-CoV-2 gamma VoC [6]): decreased | SARS-CoV-2-induced inflammation in the BAL fluid (SARS-CoV-2 gamma VoC [7]): attenuated | MB-905 in rat lung (Fig4C source data, per animal) ([8]; 1 h): 231.05 and 263.97 and 218.08 | MB-905 in rat lung (Fig4C source data, per animal) ([8]; 2 h): 360.89 and 345.91 and 313.18 | MB-905 in rat lung (Fig4C source data, per animal) ([8]; 4 h): 100.91 and 155.47 and 69.56 | MB-905 in rat lung (Fig4C source data, per animal) ([8]; 8 h): 7.77 and 46.28 and 12.38 | MB-905 in rat lung (Fig4C source data, per animal) ([8]; 12 h): 0 | NOAEL (in vivo): 500 mg/kg | MTD (in vivo; oral, read-out: Recommended dose for repeated exposure (MTD assay)): 550 mg/kg
